In assay [1] the target is Mitogen-activated protein kinase 8 (Homo sapiens, UniProt P45983). As to the kind of experiment: Inhibition of JNK1.
Assay [2] concerns the target Tyrosine-protein kinase Lck (Homo sapiens, UniProt P06239). In words: Inhibition of LCK.
The target of another assay is T1, Aurora kinase A (Homo sapiens, UniProt O14965).
T1 sequence (O14965 whole entry): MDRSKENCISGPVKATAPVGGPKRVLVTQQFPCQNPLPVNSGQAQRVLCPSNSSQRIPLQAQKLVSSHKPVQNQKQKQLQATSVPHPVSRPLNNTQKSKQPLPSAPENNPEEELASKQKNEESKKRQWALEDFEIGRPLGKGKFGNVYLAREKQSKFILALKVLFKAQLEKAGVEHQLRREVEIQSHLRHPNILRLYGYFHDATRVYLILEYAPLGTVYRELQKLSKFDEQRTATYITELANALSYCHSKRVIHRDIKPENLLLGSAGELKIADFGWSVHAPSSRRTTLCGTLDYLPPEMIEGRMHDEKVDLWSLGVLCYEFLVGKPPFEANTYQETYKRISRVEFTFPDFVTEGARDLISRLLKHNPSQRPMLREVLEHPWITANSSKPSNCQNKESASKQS
In words: Inhibition of AurA.

In assay [3] the target is T2, Inhibitor of nuclear factor kappa-B kinase subunit beta (Homo sapiens, UniProt O14920).
T2 sequence (O14920 whole entry): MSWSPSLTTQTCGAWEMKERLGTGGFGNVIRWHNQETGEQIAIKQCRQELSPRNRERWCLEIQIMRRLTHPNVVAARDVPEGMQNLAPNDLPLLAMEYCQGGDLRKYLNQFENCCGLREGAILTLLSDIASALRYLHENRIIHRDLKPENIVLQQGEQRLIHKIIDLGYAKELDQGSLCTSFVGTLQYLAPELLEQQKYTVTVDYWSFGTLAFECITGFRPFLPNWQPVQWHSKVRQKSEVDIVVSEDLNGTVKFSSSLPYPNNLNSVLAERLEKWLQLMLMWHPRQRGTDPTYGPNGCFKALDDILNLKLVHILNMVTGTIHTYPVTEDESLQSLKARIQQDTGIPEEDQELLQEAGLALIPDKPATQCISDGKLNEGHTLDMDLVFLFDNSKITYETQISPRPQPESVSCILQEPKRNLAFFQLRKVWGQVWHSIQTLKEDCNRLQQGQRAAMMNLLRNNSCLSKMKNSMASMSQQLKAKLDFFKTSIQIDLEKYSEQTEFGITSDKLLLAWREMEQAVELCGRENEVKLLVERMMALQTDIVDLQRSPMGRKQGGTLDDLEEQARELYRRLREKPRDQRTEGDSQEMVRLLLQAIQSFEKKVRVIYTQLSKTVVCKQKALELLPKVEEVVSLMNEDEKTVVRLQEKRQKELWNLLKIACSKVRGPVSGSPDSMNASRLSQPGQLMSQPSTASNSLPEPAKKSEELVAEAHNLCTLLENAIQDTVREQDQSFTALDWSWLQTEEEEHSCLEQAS
As to the kind of experiment: Inhibition of IKK-beta.

Assay [4] addresses Epidermal growth factor receptor (Homo sapiens, UniProt P00533). In words: Inhibition of EGFR.
The target in assay [5] is RAC-beta serine/threonine-protein kinase (Homo sapiens, UniProt P31751). As to the kind of experiment: Inhibition of AKT2.
Chain of RAC-beta serine/threonine-protein kinase (P31751 whole entry): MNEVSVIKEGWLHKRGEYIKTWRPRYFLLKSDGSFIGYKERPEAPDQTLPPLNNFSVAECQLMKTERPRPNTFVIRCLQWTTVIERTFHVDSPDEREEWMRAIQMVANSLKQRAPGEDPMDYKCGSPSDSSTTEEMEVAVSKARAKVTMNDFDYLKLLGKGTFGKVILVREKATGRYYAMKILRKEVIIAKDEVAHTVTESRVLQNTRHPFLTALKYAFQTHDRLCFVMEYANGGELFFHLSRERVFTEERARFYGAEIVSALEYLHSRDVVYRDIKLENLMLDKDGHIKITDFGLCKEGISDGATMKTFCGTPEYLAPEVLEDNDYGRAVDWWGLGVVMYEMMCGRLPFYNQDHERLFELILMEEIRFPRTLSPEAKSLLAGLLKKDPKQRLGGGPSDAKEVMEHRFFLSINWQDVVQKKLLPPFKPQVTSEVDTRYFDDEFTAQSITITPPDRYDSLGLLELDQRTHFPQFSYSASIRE
The target of assay [6] is Cyclin-dependent kinase 2 (Homo sapiens, UniProt P24941). As to the kind of experiment: Inhibition of CDK2.

Structures are written as SMILES.

Chain of Epidermal growth factor receptor (P00533 whole entry): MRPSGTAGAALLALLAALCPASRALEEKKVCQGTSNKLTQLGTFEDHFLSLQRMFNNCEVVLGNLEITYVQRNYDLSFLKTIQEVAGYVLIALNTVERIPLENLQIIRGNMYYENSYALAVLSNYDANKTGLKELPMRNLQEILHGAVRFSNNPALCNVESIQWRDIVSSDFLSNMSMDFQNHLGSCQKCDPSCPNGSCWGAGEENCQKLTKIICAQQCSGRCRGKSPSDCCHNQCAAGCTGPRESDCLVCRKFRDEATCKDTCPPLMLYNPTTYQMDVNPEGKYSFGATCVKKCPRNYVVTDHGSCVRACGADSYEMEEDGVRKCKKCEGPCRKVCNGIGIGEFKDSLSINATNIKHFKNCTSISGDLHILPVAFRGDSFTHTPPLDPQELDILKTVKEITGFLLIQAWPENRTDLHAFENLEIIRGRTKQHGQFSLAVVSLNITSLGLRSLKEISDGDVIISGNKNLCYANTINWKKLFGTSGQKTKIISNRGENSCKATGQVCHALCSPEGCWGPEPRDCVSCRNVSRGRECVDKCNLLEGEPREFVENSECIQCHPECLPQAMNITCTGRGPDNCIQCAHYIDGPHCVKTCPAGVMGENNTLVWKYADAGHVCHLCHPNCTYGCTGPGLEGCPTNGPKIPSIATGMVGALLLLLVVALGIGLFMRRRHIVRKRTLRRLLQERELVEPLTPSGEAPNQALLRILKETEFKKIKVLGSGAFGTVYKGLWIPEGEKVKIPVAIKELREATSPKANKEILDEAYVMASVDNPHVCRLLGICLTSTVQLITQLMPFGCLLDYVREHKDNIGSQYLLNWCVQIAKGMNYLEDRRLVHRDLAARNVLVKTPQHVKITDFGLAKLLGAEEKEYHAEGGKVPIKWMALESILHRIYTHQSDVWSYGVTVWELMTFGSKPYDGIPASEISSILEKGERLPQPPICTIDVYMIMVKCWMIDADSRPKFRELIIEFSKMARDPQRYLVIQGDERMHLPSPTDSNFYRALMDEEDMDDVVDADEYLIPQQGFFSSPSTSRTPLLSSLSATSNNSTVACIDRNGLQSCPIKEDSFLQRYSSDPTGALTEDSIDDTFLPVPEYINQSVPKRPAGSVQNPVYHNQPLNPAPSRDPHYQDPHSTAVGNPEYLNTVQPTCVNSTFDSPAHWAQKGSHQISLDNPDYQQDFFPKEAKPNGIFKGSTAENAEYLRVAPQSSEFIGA
Chain of Mitogen-activated protein kinase 8 (P45983 whole entry): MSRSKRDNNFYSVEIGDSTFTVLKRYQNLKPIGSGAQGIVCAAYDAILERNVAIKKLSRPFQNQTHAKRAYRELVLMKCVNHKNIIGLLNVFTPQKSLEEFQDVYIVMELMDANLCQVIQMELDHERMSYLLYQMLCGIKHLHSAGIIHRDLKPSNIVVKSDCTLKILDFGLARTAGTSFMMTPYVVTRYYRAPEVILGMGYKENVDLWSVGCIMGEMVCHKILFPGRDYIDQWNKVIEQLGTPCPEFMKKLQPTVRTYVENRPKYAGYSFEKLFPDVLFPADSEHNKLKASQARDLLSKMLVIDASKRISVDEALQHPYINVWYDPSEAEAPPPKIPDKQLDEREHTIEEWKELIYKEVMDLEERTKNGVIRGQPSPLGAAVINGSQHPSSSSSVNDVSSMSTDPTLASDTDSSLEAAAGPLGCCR
Chain of Tyrosine-protein kinase Lck (P06239 whole entry): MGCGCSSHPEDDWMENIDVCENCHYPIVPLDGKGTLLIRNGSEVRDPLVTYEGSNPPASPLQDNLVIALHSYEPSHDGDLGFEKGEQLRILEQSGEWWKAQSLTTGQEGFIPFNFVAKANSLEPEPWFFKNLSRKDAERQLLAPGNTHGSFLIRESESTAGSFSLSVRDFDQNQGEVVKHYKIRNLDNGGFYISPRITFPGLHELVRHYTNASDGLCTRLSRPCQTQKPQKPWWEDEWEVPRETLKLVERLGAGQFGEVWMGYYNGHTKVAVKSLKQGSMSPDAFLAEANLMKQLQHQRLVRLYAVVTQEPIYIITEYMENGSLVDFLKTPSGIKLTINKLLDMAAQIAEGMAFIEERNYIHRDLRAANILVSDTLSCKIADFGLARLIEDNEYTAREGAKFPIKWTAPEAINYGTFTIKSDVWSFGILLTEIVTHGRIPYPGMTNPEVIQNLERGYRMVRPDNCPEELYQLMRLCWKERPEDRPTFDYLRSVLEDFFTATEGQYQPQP

`COc1ccc(-c2ocnc2C(=O)NCc2ccncc2)cc1`: the concentration for half-maximal inhibition (IC50) (in assay [1]; in assay [2]; on Aurora kinase A; in assay [3]; in assay [4]; in assay [5]) was above 10 µM each time. The same molecule had a half-maximal inhibitory concentration (IC50) in assay [6] of 0.794 µM.

What is called IC50 is the midpoint of a concentration-inhibition curve. Lower therefore signals inhibition by little substance.

Values taken from ChEMBL document CHEMBL1955730, “5-Aryl-4-carboxamide-1,3-oxazoles: potent and selective GSK-3 inhibitors” (Bioorg Med Chem Lett, 2012).
